17 compounds from article PMC5147771, “High-Resolution Genetics Identifies the Lipid Transfer Protein Sec14p as Target for Antifungal Ergolines” (PLoS Genetics, 2016) can be followed below.

Entries after “also recorded” stand apart in the source; their conditions may differ. Like-named read-outs stand apart in the source and are kept apart here.

One test has as its system C. neoformans ATCC 36556. Put plainly: C. neoformans growth inhibition (CLSI M27-A3 broth microdilution). The test is classed as cell-based. As to conditions: for MIC: Cryptococcus neoformans, ATCC36556, 72 h; for C. neoformans growth inhibition (in words): clinical isolates ATCC 36556 and ATCC 90113, tested dose range. An excerpt: (§1) Sec14p is reported to be essential for virulence as well as for growth in C. neoformans. The S. cerevisiae and C. neoformans proteins show 53% similarity by pair-wise alignment with higher conservation of the residues in the lipid-binding pocket (S2 Fig). Furthermore, three of the four sites identified to be critical for NGx04 sensitivity, are conserved (S2 Fig). In combination with the current high unmet medical need related to Cryptococcus infections we prioritized testing of NGx04 and 18 related ergoline scaffold analogs against this pathogen. Two clinical isolates of C. neoformans (ATCC 36556 and ATCC 90113) were plated in triplicates on increasing drug concentrations and MIC-2 (50% inhibition) and MIC-0 (no visible fungal growth) concentrations were scored after 72 hrs. (Fig 5).
(§2) C. neoformans strains ATCC 36556, a lung isolate, and ATCC 90113, a cerebrospinal fluid isolate, were purchased from ATCC, Manassas, VA (USA). BPY22 was obtained from.
(§3) Antifungal susceptibility testing was conducted according to the Clinical and Laboratory Standards Institute (CLSI) guidelines for broth microdilution assay M27-A3. Testing was performed in RPMI-1640 (HyClone) with 2.05 mM glutamine, phenol red, without bicarbonate and buffered with 0.165 mol/l 3-(N-morpholino) propanesulfonic acid (MOPS). The medium was adjusted to pH 7.0 and sterilized with a 0.2 μm filter. Two endpoints were recorded: MIC-0 (complete inhibition with no visible fungal growth) and MIC-2 (prominent inhibition corresponding to >50% growth reduction).
Background: Dilution methods test growth across graded concentrations, often in twofold steps.

In the next test the test system is C. neoformans ATCC 90113. The description is as above. The test is classed as cell-based. Conditions: for MIC: Cryptococcus neoformans, ATCC90113, 72 h.
Source text: as §1, §2, §3

[1] abbreviates: 50% inhibition, 72 h, triplicate values printed singly.
Setting [2] is: 50% inhibition, 72 h, triplicate values printed singly, read-out: ATCC36556 MIC-2.
Where [3] appears, read: no visible fungal growth, 72 h, triplicate values printed singly, read-out: ATCC36556 MIC-0.
The mark [4] stands for this setting: no visible fungal growth, 72 h, triplicate values printed singly.
The mark [5] stands for this setting: 50% inhibition, 72 h, triplicate values printed singly, read-out: ATCC90113 MIC-2.
[6] abbreviates: no visible fungal growth, 72 h, triplicate values printed singly, read-out: ATCC90113 MIC-0.

Broadly, the MIC is the least concentration at which growth counts as inhibited. `C[C@@H]1[C@H](O)[C@@H](C)/C=C/C=C/C=C/C=C/C=C/C=C/C=C/[C@H](O[C@@H]2O[C@H](C)[C@@H](O)[C@H](N)[C@@H]2O)C[C@@H]2O[C@](O)(C[C@@H](O)C[C@@H](O)[C@H](O)CC[C@@H](O)C[C@@H](O)CC(=O)O[C@H]1C)C[C@H](O)[C@H]2C(=O)O` [Amphotericin B, reference compound]: the “ATCC36556 MIC-2” value in the test on C. neoformans ATCC 36556 (setting [1]) was 0.1 µg/mL. The MIC in the test on C. neoformans ATCC 36556 (setting [2]) worked out at 0.2 µg/mL; in the test with C. neoformans ATCC 36556 (setting [3]), 0.2 µg/mL; in the test on C. neoformans ATCC 90113 (setting [5]) it was 0.8 µg/mL; with C. neoformans ATCC 90113 (setting [6]) it was 1.6 µg/mL. In addition, the “ATCC36556 MIC-0” value in the test on C. neoformans ATCC 36556 (setting [4]) turned out to be 0.4 µg/mL.
As for `CN1C[C@H](C(=O)O)C[C@@H]2c3cccc4c3[C@H](C[C@H]21)CN4C(=O)OC(C)(C)C` [NGx01], the MIC with C. neoformans ATCC 36556 (read-out: ATCC36556 MIC-0), in the test on C. neoformans ATCC 36556 (read-out: ATCC36556 MIC-2), with C. neoformans ATCC 90113 (read-out: ATCC90113 MIC-0) and in the test on C. neoformans ATCC 90113 (read-out: ATCC90113 MIC-2) was above 50 µg/mL each time.
As to `COC(=O)[C@@H]1C[C@@H]2c3cc(O)cc4c3[C@H](C[C@H]2N(C)C1)CN4C(C)=O` [NGx02], the MIC in the test on C. neoformans ATCC 36556 (setting [2]), with C. neoformans ATCC 36556 (setting [3]), with C. neoformans ATCC 90113 (setting [5]) and in the test with C. neoformans ATCC 90113 (setting [6]) was above 50 µg/mL throughout.
For `CN1C[C@H](C(=O)Nc2cccc(C(F)(F)F)c2)C[C@@H]2c3cccc4c3[C@H](C[C@H]21)CN4C(=O)OC(C)(C)C` [NGx03], the “ATCC36556 MIC-2” value in the test on C. neoformans ATCC 36556 (setting [1]) turned out to be 3.1 µg/mL. The MIC in the test on C. neoformans ATCC 36556 (setting [2]) was 3.13 µg/mL; with C. neoformans ATCC 36556 (setting [3]), 6.25 µg/mL; in the test on C. neoformans ATCC 90113 (setting [5]) it was above 50 µg/mL; with C. neoformans ATCC 90113 (setting [6]) it was above 50 µg/mL. For the same compound, the “C. neoformans growth inhibition (in words)” value with C. neoformans ATCC 36556 is “inhibit C. neoformans growth; also recorded: scored anti-fungal activity”. Moreover, the “ATCC36556 MIC-0” value with C. neoformans ATCC 36556 (setting [4]) came out at 6.3 µg/mL.
`COC(=O)[C@@H]1C[C@@H]2c3cc(F)cc4c3[C@H](C[C@H]2N(C)C1)CN4C(C)=O` [NGx06]: the MIC was 50 µg/mL with C. neoformans ATCC 36556 (setting [2]), above 50 µg/mL in the test on C. neoformans ATCC 36556 (setting [3]), above 50 µg/mL in the test on C. neoformans ATCC 90113 (setting [5]) and above 50 µg/mL in the test with C. neoformans ATCC 90113 (setting [6]).
Regarding `CN1C[C@H](C(=O)Nc2ccccc2)C[C@@H]2c3c(O)ccc4c3[C@H](C[C@H]21)CN4C(=O)OC(C)(C)C` [NGx07], the MIC in the test on C. neoformans ATCC 36556 (setting [2]) is 6.3 µg/mL; in the test on C. neoformans ATCC 36556 (setting [3]), above 50 µg/mL; in the test with C. neoformans ATCC 90113 (setting [5]), 13 µg/mL; in the test with C. neoformans ATCC 90113 (setting [6]) it was above 50 µg/mL. Further, the “C. neoformans growth inhibition (in words)” value in the test with C. neoformans ATCC 36556 is given as “inhibit C. neoformans growth; also recorded: scored anti-fungal activity”.
Turning to `COC(=O)[C@@H]1C[C@@H]2c3cc(OCc4ccccc4)cc4c3[C@H](C[C@H]2N(C)C1)CN4C(C)=O` [NGx08], the “ATCC36556 MIC-2” value in the test with C. neoformans ATCC 36556 (setting [1]) amounted to 25 µg/mL. Moreover, the MIC with C. neoformans ATCC 36556 (setting [2]) was 50 µg/mL; in the test with C. neoformans ATCC 36556 (setting [3]), above 50 µg/mL; in the test on C. neoformans ATCC 90113 (setting [5]), above 50 µg/mL; with C. neoformans ATCC 90113 (setting [6]), above 50 µg/mL.
As to `COC(=O)[C@@H]1C[C@@H]2c3cc([N+](=O)[O-])cc4c3[C@H](C[C@H]2N(C)C1)CN4C(=O)OCC(Cl)(Cl)Cl` [NGx09], the minimum inhibitory concentration (MIC) in the test on C. neoformans ATCC 36556 (setting [3]) and with C. neoformans ATCC 90113 (setting [6]) was above 50 µg/mL each time. Further, the “C. neoformans growth inhibition (in words)” value with C. neoformans ATCC 36556 is “inhibit C. neoformans growth”.
`COC(=O)[C@@H]1C[C@@H]2c3cc(N)cc4c3[C@H](C[C@H]2N(C)C1)CN4C(C)=O` [NGx10]: the MIC is 25 µg/mL in the test with C. neoformans ATCC 36556 (setting [2]), above 50 µg/mL in the test with C. neoformans ATCC 36556 (setting [3]), above 50 µg/mL in the test with C. neoformans ATCC 90113 (setting [5]) and above 50 µg/mL in the test with C. neoformans ATCC 90113 (setting [6]).
`COC(=O)[C@@H]1C[C@@H]2c3cc([N+](=O)[O-])cc4c3[C@H](C[C@H]2N(C)C1)CN4C(C)=O` [NGx11]: the MIC in the test on C. neoformans ATCC 36556 (setting [2]) is 25 µg/mL; in the test on C. neoformans ATCC 36556 (setting [3]), above 50 µg/mL; in the test with C. neoformans ATCC 90113 (setting [5]) it was above 50 µg/mL; in the test with C. neoformans ATCC 90113 (setting [6]) it was above 50 µg/mL.
As for `COC(=O)C1CC2c3cc(O)cc4c3C(CC2N(C)C1)CN4C(C)=O` (centres unmarked) [NGx12], the “ATCC36556 MIC-2” value in the test with C. neoformans ATCC 36556 (setting [1]) came to 50 µg/mL. The MIC in the test on C. neoformans ATCC 36556 (setting [2]) was 25 µg/mL; in the test on C. neoformans ATCC 36556 (setting [3]), above 50 µg/mL; in the test on C. neoformans ATCC 90113 (setting [5]) it was above 50 µg/mL; in the test on C. neoformans ATCC 90113 (setting [6]), above 50 µg/mL.
Regarding `COC(=O)[C@@H]1C[C@@H]2c3cc([N+](=O)[O-])cc4c3[C@@H](CN4)C[C@H]2N(C)C1` [NGx14], the MIC in the test on C. neoformans ATCC 36556 (setting [2]) is 50 µg/mL; in the test on C. neoformans ATCC 36556 (setting [3]), above 50 µg/mL; in the test on C. neoformans ATCC 90113 (setting [5]), above 50 µg/mL; in the test on C. neoformans ATCC 90113 (setting [6]), above 50 µg/mL.
With `COC(=O)C1CC2c3cccc4c3C(CC2N(C(C)C)C1)CN4C(=O)OC(C)(C)C` (centres unmarked) [NGx15], the MIC with C. neoformans ATCC 36556 (setting [2]), with C. neoformans ATCC 36556 (setting [3]), with C. neoformans ATCC 90113 (setting [5]) and in the test with C. neoformans ATCC 90113 (setting [6]) was above 50 µg/mL in each case.
In the case of `COC(=O)[C@@H]1C[C@@H]2c3cccc4c3[C@H](C[C@H]2N(C)C1)CN4C(=O)OCC(Cl)(Cl)Cl` [NGx16], the MIC was determined as 13 µg/mL in the test with C. neoformans ATCC 36556 (setting [2]), 50 µg/mL with C. neoformans ATCC 36556 (setting [3]), 13 µg/mL with C. neoformans ATCC 90113 (setting [5]) and 50 µg/mL in the test on C. neoformans ATCC 90113 (setting [6]). Further, the “C. neoformans growth inhibition (in words)” value with C. neoformans ATCC 36556 is reported as “inhibit C. neoformans growth”. Moreover, in the test on C. neoformans ATCC 36556 (setting [4]), the “ATCC36556 MIC-0” value is above 50 µg/mL. Also, the “ATCC90113 MIC-0” value with C. neoformans ATCC 90113 (setting [4]) is above 50 µg/mL.
In the case of `COC(=O)C1CC2c3cccc4c3C(CC2N(C)C1)CN4C=O` (centres unmarked) [NGx17], the “ATCC36556 MIC-2” value in the test on C. neoformans ATCC 36556 (setting [1]) was above 50 µg/mL. For the same compound, the MIC in the test with C. neoformans ATCC 36556 (setting [2]) is 50 µg/mL; in the test with C. neoformans ATCC 36556 (setting [3]) it was above 50 µg/mL; in the test on C. neoformans ATCC 90113 (setting [5]) it was above 50 µg/mL; in the test on C. neoformans ATCC 90113 (setting [6]) it was above 50 µg/mL.
Regarding `CN1CC(C(=O)O)CC2c3cccc4c3C(CC21)CN4C(=O)OCc1ccccc1` (centres unmarked) [NGx18], the minimum inhibitory concentration (MIC) in the test with C. neoformans ATCC 36556 (setting [2]), with C. neoformans ATCC 36556 (setting [3]), in the test with C. neoformans ATCC 90113 (setting [5]) and in the test with C. neoformans ATCC 90113 (setting [6]) was above 50 µg/mL in each case.
As for `COC(=O)[C@@H]1C[C@@H]2c3c([N+](=O)[O-])ccc4c3[C@H](C[C@H]2N(C)C1)CN4C(=O)OCC(Cl)(Cl)Cl` [NGx19], the “ATCC36556 MIC-2” value with C. neoformans ATCC 36556 (setting [1]) is 13 µg/mL. Further, the MIC with C. neoformans ATCC 36556 (setting [2]) is 12.5 µg/mL; in the test on C. neoformans ATCC 36556 (setting [3]), 50 µg/mL; in the test on C. neoformans ATCC 90113 (setting [5]), 6.25 µg/mL; in the test on C. neoformans ATCC 90113 (setting [6]) it was above 50 µg/mL. In the test with C. neoformans ATCC 36556, the “C. neoformans growth inhibition (in words)” value was “inhibit C. neoformans growth”. The “ATCC36556 MIC-0” value in the test on C. neoformans ATCC 36556 (setting [4]) was determined as 25 µg/mL. In the test with C. neoformans ATCC 90113 (setting [1]), the “ATCC90113 MIC-2” value stood at 6.3 µg/mL.
